Test results from patent US20250099448A1, “HETEROCYCLIC COMPOUNDS” (Hoffmann-La Roche Inc., priority 2022, published 2025).

Each molecule was assayed against T1, MAGL protein (Homo sapiens, UniProt Q99685) (assay: 2-AG assay: MAGL inhibitory activity by hydrolysis of 2-arachidonoylglycerol to arachidonic acid, followed by mass spectrometry). Settings: 8 μM 2-arachidonoylglycerol, 15 min preincubation, 30 min reaction at RT, RapidFire MS readout.
T1 sequence (Q99685 1-303): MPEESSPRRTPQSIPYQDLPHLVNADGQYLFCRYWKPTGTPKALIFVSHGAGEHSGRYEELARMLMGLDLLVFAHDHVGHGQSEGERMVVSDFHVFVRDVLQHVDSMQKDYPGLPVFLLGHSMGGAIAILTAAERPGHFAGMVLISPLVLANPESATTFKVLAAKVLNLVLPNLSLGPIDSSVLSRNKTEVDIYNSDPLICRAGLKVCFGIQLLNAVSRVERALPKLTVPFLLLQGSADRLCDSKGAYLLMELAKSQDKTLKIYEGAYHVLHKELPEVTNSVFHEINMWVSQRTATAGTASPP
Type: biochemical
How it was run: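 MAGL was preincubated 15 min at RT with compound (12.5 to […], 3-fold steps) in 50 mM TRIS, 1 mM EDTA, 0.01% Tween-20, 2.5% DMSO. The reaction ran 30 min at RT with 8 μM 2-AG. Arachidonic acid was quantified by RapidFire SPE-MS/MS against a d8-arachidonic acid internal standard.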
Cn1cc(CC2CC3(C2)CN(C(=O)N2CC4(CC(c5nc(C6(O)CC6)n[nH]5)C4)C2)C3)c(C(F)(F)F)n1 [compound 810] gave an IC50 of 1.14 nM.
Molecule O=C(N1CC2(CCC(Cc3nnc(C(F)(F)F)[nH]3)CC2)C1)N1CC2(CC(c3nc(C4CC4)n[nH]3)C2)C1 [compound 436] has an IC50 of 32.3 nM.
In the case of O=C(N1CC(CN2CCC(F)(F)CC2)C1)N1CC2(CC(c3nnc(C4CC4)[nH]3)C2)C1 [compound 219], the IC50 is reported as 923 nM.
In the case of O=C(N1CC2(CC(c3nnc(C4CC4)[nH]3)C2)C1)N1CC2(CC(N3CCS(=O)(=O)CC3)C2)C1 [compound 220], the IC50 is reported as 207 nM.
Molecule CS(=O)(=O)c1ccc(CC2CCC3(C2)CN(C(=O)N2CC4(CC(c5nnc(C6CC6)[nH]5)C4)C2)C3)cc1C(F)(F)F (centres unmarked) [compound 153] has an IC50 of 0.27 nM.
O=C(N1CC2(CC(Cn3nccc3C(F)(F)F)C2)C1)N1CC2(CC(c3nc(C4(O)CC4)n[nH]3)C2)C1 [compound 796] showed an IC50 of 1.17 nM.
For O=C(N1CC(c2ccc(-c3cc(C(F)(F)F)n[nH]3)cc2)C1)N1CC2(CC(c3nnc(C4CC4)[nH]3)C2)C1 [compound 851], the IC50 was 0.23 nM.
O=C(N1CC2(CC(Cc3cnc4cc(C(F)(F)F)nn4c3)C2)C1)N1CC2(CC(c3nc(C4CC4)n[nH]3)C2)C1 [compound 996] showed an IC50 of 0.6 nM.
O=C(N1CC(c2ccc(N3CCC(C(F)(F)F)CC3=O)cc2)C1)N1CC2(CC(c3nnc(C4CC4)[nH]3)C2)C1 (single isomer, unassigned) [compound 279] showed an IC50 of 5.16 nM.
Work on O=C(N1CC2(CC(NS(=O)(=O)c3ccc(C(F)(F)F)cc3)C2)C1)N1CC2(CC(c3nnc(C4CC4)[nH]3)C2)C1 [compound 223] yielded an IC50 of 0.33 nM.
In the case of COc1cc(Cl)ccc1CN(C)C1CCN(C(=O)N2CC3(CC(c4nnc(C5CC5)[nH]4)C3)C2)CC1 [Example 893, [4-[(4-chloro-2-methoxy-benzyl)-methyl-amino]piperidino]-[6-(5-cyclopropyl-4H-1,2,4-triazol-3-yl)-2-azaspiro[3.3]heptan-2-yl]methanone], the IC50 is reported as 95.2 nM.
Molecule N=S(=O)(c1ccc(C(F)(F)F)cc1)C1CCC2(CC1)CN(C(=O)N1CC3(CC(c4nc(C5CC5)n[nH]4)C3)C1)C2 (centres unmarked) [Example 429] has an IC50 of 11.8 nM.
Work on CS(=O)(=O)c1ccc(-c2ccc(C3CN(C(=O)N4CC5(CC(c6ncn[nH]6)C5)C4)C3)cc2)c(Cl)c1 [compound 981] yielded an IC50 of 1770 nM.
CS(=O)(=O)c1ccc(Cl)cc1OC1CCC2(CC1)CN(C(=O)N1CC3(CC(c4nnc(C5CC5)[nH]4)C3)C1)C2 [compound 350] gave an IC50 of 3.43 nM.
For O=C(N1CC2(CC(Oc3nc(C(F)(F)F)cs3)C2)C1)N1CC2(CC(c3nc(C4CC4)n[nH]3)C2)C1 [compound 423], the IC50 was 1.11 nM.
With N#Cc1[nH]nnc1-c1ccc(C2CN(C(=O)N3CC4(CC(c5nnc(C6CC6)[nH]5)C4)C3)C2)cc1 [Example 910, 4-[4-[1-[6-(5-cyclopropyl-4H-1,2,4-triazol-3-yl)-2-azaspiro[3.3]heptane-2-carbonyl]azetidin-3-yl]phenyl]-1H-triazole-5-carbonitrile] the IC50 was 4.23 nM.
In the case of O=C(N1CC(C23CC(c4nnc(CC(F)(F)F)o4)(C2)C3)C1)N1CC2(CC(c3nnc(C4CC4)[nH]3)C2)C1 [compound 344], the IC50 is reported as 7.59 nM.
In the case of O=C(N1CC2(CC(Cc3ncc(Cl)cc3F)C2)C1)N1CC2(CC(c3nc(C4(O)CC4)n[nH]3)C2)C1 [compound 676], the IC50 is reported as 2.94 nM.
Work on O=C(N1CCC(CNS(=O)(=O)c2ccc(Cl)cc2)CC1)N1CC2(CC(c3nnc(C4CC4)[nH]3)C2)C1 [compound 252] yielded an IC50 of 68.3 nM.
Cc1cc(C(F)(F)F)nn1-c1ccc(C2CN(C(=O)N3CC4(CC(c5nnc(C6CC6)[nH]5)C4)C3)C2)cc1 [compound 278] was tested, and the IC50 was 0.3 nM.
CC(C)(C)c1nnc(CN2CC3(C2)CN(C(=O)N2CC4(CC(c5nc(C6CC6)n[nH]5)C4)C2)C3)s1 [compound 487] gave an IC50 of 9.82 nM.
O=C(N1CC2(CC(Cc3cnn(CC(F)(F)F)c3)C2)C1)N1CC2(CC(c3nc(C4CC4)n[nH]3)C2)C1 [compound 764] was tested, and the IC50 was 1.08 nM.
O=C(N1CC2(CC(c3nc(C4CC4)n[nH]3)C2)C1)N1CC2(CN(Cc3cnn(CC(F)(F)F)c3)C2)C1 [compound 568] was tested, and the IC50 was 408 nM.
With O=C(N1CC(c2cnc(NCC3(C(F)(F)F)CC3)cn2)C1)N1CC2(CC(c3nc(C4(F)CC4)n[nH]3)C2)C1 [compound 503] the IC50 was 0.69 nM.
O=C(N1CC2(CC(Cc3ccc(F)cc3F)C2)C1)N1CC2(CC(c3nnc(C4CC4)[nH]3)C2)C1 [compound 35] gave an IC50 of 0.07 nM.
Molecule COC(=O)c1ccc(CC2CC3(C2)CN(C(=O)N2CC4(CC(c5nc(C6CC6)n[nH]5)C4)C2)C3)cc1OC(F)(F)F [compound 911] has an IC50 of 0.03 nM.
In the case of O=C(N1CC2(CC(Cc3ccc(Cl)cn3)C2)C1)N1CC2(CC(c3ncn[nH]3)C2)C1 [compound 831], the IC50 is reported as 1220 nM.
With CS(=O)(=O)c1ccc(C2CC3(C2)CN(C(=O)N2CC4(CC(c5nnc(C6CC6)[nH]5)C4)C2)C3)cc1 [compound 939] the IC50 was 3.41 nM.
COc1cc(Cl)ccc1CN(C)CC1CN(C(=O)N2CC3(CC(c4nnc(C5CC5)[nH]4)C3)C2)C1 [compound 894] gave an IC50 of 77.5 nM.
With O=C(N1CC2(CC(Cc3cnc(C(F)(F)F)cn3)C2)C1)N1CC2(CC(c3nc(C4(O)CC4)n[nH]3)C2)C1 [compound 4] the IC50 was 4.89 nM.
In the case of O=C(N1CC(C23CC(Nc4cnc(C(F)(F)F)cn4)(C2)C3)C1)N1CC2(CC(c3nc(C4(O)CC4)n[nH]3)C2)C1 [compound 593], the IC50 is reported as 1.36 nM.
For O=C(N1CC2(CCC(Cc3ccc(C(F)(F)F)cn3)CC2)C1)N1CC2(CC(c3nnc(C4(O)CC4)[nH]3)C2)C1 [compound 49], the IC50 was 0.81 nM.
In the case of O=C(N1CC(c2ccc(NCC3(C(F)(F)F)CC3)nc2)C1)N1CC2(CC(c3nnc(C4CC4)[nH]3)C2)C1 [compound 253], the IC50 is reported as 0.14 nM.
For O=C(N1CC2(CC(Cc3ccc(C(F)(F)F)nc3)C2)C1)N1CC2(CC(c3ncn[nH]3)C2)C1 [compound 986], the IC50 was 2360 nM.
Molecule Cc1cc(C(F)(F)F)cnc1OC1CC2(CCN(C(=O)N3CC4(CC(c5nc(C6CC6)n[nH]5)C4)C3)CC2)C1 [Example 836] has an IC50 of 0.08 nM.
O=C(N1CC(C23CC(c4nnc(C5(C(F)(F)F)CC5)s4)(C2)C3)C1)N1CC2(CC(c3nc(C4CC4)n[nH]3)C2)C1 [compound 557] showed an IC50 of 12.4 nM.
O=C(N1CC2(CC(Cn3ccc(C(F)(F)F)n3)C2)C1)N1CC2(CC(c3nc(C4CC4)n[nH]3)C2)C1 [compound 844] gave an IC50 of 0.71 nM.
O=C(N1CC2(CC(Cc3ccnc(C(F)(F)F)n3)C2)C1)N1CC2(CC(c3nc(C4CC4)n[nH]3)C2)C1 [compound 402] gave an IC50 of 0.95 nM.
With O=C(N1CC2(CC(c3nnc(C4CC4)[nH]3)C2)C1)N1CC2(CN(Cc3nc(-c4ccccc4)no3)C2)C1 [compound 888] the IC50 was 2.85 nM.
Molecule O=C(N1CC(c2ccc(-n3cnc(C4CC4)n3)cc2)C1)N1CC2(CC(c3nnc(C4CC4)[nH]3)C2)C1 [compound 934] has an IC50 of 4.44 nM.
With N#Cc1ccc(CC2CC3(C2)CN(C(=O)N2CC4(CC(c5nc(C6CC(F)(F)C6)n[nH]5)C4)C2)C3)c(F)c1 [compound 486] the IC50 was 10.6 nM.
O=C(N1CC2(CC(Cc3ccc4c(C(F)(F)F)cn(CCO)c4n3)C2)C1)N1CC2(CC(c3nc(C4CC4)n[nH]3)C2)C1 [Example 858] was tested, and the IC50 was 0.02 nM.
O=C(N1CC2(CC(c3nc(C4CC4)n[nH]3)C2)C1)C12CC(Nc3cnc(C(F)(F)F)cn3)(C1)C2 [Example 473, [6-(3-cyclopropyl-1H-1,2,4-triazol-5-yl)-2-azaspiro[3.3]heptan-2-yl]-[3-[[5-(trifluoromethyl)pyrazin-2-yl]amino]-1-bicyclo[1.1.1]pentanyl]methanone] gave an IC50 of 67.8 nM.
COC(=O)c1ccccc1-c1ccc(C2CN(C(=O)N3CC4(CC(c5nnc(C6CC6)[nH]5)C4)C3)C2)cc1 [compound 339] gave an IC50 of 0.16 nM.
CP(C)(=O)c1ccc(CC2CC3(C2)CN(C(=O)N2CC4(CC(c5nc(C6CC6)n[nH]5)C4)C2)C3)c(F)c1 [compound 462] was tested, and the IC50 was 3.09 nM.
Work on O=C(N1CC2(CCN(S(=O)(=O)C34CC(C(F)(F)F)(C3)C4)CC2)C1)N1CC2(CC(c3nnc(C4CCC4)[nH]3)C2)C1 [compound 239] yielded an IC50 of 842 nM.
With O=C(N1CC2(CC(Cc3cncc(F)c3)C2)C1)N1CC2(CC(c3nnc(C4CC4)[nH]3)C2)C1 [compound 45] the IC50 was 2.37 nM.
COc1ccccc1S(=O)(=O)N1CC2(CN(C(=O)N3CC4(CC(c5nnc(C6CC6)[nH]5)C4)C3)C2)C1 [compound 108] showed an IC50 of 34.1 nM.
Molecule O=C(N1CC2(CC(Cc3nc(C(F)(F)F)co3)C2)C1)N1CC2(CC(c3nnc(C4CC4)[nH]3)C2)C1 [compound 61] has an IC50 of 0.66 nM.
Work on O=C(N1CC2(CC(c3nc(C4CC4)n[nH]3)C2)C1)N1CC2(CN(Cc3conc3C(F)(F)F)C2)C1 [compound 663] yielded an IC50 of 13.1 nM.
For N#Cc1ccc(CC2CC3(C2)CN(C(=O)N2CC4(CC(c5nc(C6CC(F)(F)C6)n[nH]5)C4)C2)C3)cc1C(F)(F)F [compound 677], the IC50 was 13 nM.
Work on O=C(N1CC2(CC(Cc3cncc(C(F)(F)F)c3)C2)C1)N1CC2(CC(c3nnc(C4CC4)[nH]3)C2)C1 [compound 114] yielded an IC50 of 0.22 nM.
In the case of CC(C)(C)c1conc1CN1CC2(C1)CN(C(=O)N1CC3(CC(c4nc(C5CC5)n[nH]4)C3)C1)C2 [compound 591], the IC50 is reported as 3.64 nM.
O=C(N1CC(C23CC(Cc4ccc(C(F)(F)F)nc4)(C2)C3)C1)N1CC2(CC(c3nc(C4(O)CC4)n[nH]3)C2)C1 [compound 570] showed an IC50 of 35.8 nM.
For N=S(=O)(c1ccc(CC2CC3(C2)CN(C(=O)N2CC4(CC(c5nc(C6(O)CC6)n[nH]5)C4)C2)C3)cc1)C(F)(F)F (centres unmarked) [compound 555], the IC50 was 0.34 nM.
Work on Cc1cc(C23CC(C4CN(C(=O)N5CC6(CC(c7nc(C8CC(F)(F)C8)n[nH]7)C6)C5)C4)(C2)C3)[nH]n1 [compound 975] yielded an IC50 of 1550 nM.
